19 compounds from PubChem BioAssay (NCI) can be followed below.

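Briefly, cells in 96-well plates were exposed to five compound concentrations for 48 h, and endpoints were estimated by linear interpolation. TGI marks complete inhibition of growth.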

Test systems include DMS 273 small cell lung; HOP-18 NSCLC; KM20L2 colon; XF 498 CNS; DLD-1 colon; P388 leukemia; P388/ADR leukemia; SN12K1 renal; RXF-631 renal.
Experiment in all cases: NCI tumour cell line growth inhibition, 48 h

Turning to `CCCCc1c2c(nc3c1CCCC3O)/C(=C/c1ccccc1)CCC2` (stereo not drawn), the TGI is > 100 µM with DMS 273 small cell lung, 89.5 µM in the assay on HOP-18 NSCLC, 75.1 µM in the assay with KM20L2 colon and 28.2 µM in the assay on XF 498 CNS.
`COc1cccc(NC(=S)Nn2c(C)nc3ccccc3c2=O)c1`: the TGI in the assay with DLD-1 colon, in the assay on DMS 273 small cell lung and in the assay with HOP-18 NSCLC was > 100 µM each time.
Consider `CCCCC(C)C1CCC2(C)C=CC(=O)C(C)=C2C1O` (stereo not drawn), for which the TGI in the assay on DLD-1 colon, in the assay on DMS 273 small cell lung, in the assay on HOP-18 NSCLC, in the assay on KM20L2 colon, with P388 leukemia and with P388/ADR leukemia was > 100 µM each time. Besides, the TGI in the assay on SN12K1 renal and in the assay with XF 498 CNS was > 100 µM each time.
`CCCn1c(SCC)c2ccccc2c1-c1nc(F)nc(F)n1`: the TGI with DMS 273 small cell lung, with KM20L2 colon, with RXF-631 renal and in the assay on XF 498 CNS was > 100 µM each time.
For `CC(C)(C)c1nc2c(o1)C(=O)c1ccccc1C2=O`, the TGI was found to be 14.5 µM with DLD-1 colon; 12 µM in the assay on DMS 273 small cell lung; 18.9 µM with HOP-18 NSCLC; 48.2 µM in the assay with KM20L2 colon; 14.9 µM in the assay with RXF-631 renal; 7.15 µM in the assay on XF 498 CNS.
On to `Clc1ccc(SCCSCCCCCCCCCCSCCSc2ccc(Cl)cc2)cc1`, for which the TGI in the assay on DLD-1 colon, in the assay on DMS 273 small cell lung, in the assay with HOP-18 NSCLC, with KM20L2 colon and in the assay on RXF-631 renal was > 100 µM throughout.
Turning to `COC(OC)c1cccc2c1C(=O)CCC1(O)c3ccccc3C1C2` (stereo not drawn), the TGI in the assay on DLD-1 colon, in the assay with DMS 273 small cell lung, in the assay on HOP-18 NSCLC and in the assay on XF 498 CNS was > 100 µM each time.
With `COc1ccc(C2C3C(=O)C=CC(=O)C3[C@@H]2C)cc1OC` (stereo partly drawn), the TGI with DLD-1 colon, in the assay on DMS 273 small cell lung, in the assay with HOP-18 NSCLC, with KM20L2 colon, in the assay with RXF-631 renal and in the assay with XF 498 CNS was > 100 µM throughout.
For the compound `COc1cc2c(c(C)c1O)[C@H]1COc3ccccc3[C@H]1O2`, the TGI in the assay on DLD-1 colon is > 100 µM; in the assay with DMS 273 small cell lung, 20.5 µM; in the assay on HOP-18 NSCLC, 35.6 µM; in the assay with KM20L2 colon, 63.9 µM; in the assay with RXF-631 renal it was 29.8 µM.
As to `NC(=O)N1N=C2c3ccccc3CC[C@@H]2C1c1ccccc1` (stereo partly drawn), the TGI in the assay with DLD-1 colon, with DMS 273 small cell lung and in the assay on KM20L2 colon was > 100 µM in each case.
With `N#Cc1c(-c2ccco2)cc(-c2ccc(NCc3nc4ccccc4[nH]3)cc2)nc1N`, the figures for the TGI with DLD-1 colon, with DMS 273 small cell lung and in the assay with HOP-18 NSCLC were > 100 µM, 38.5 µM and 77.9 µM, respectively.
With `COC(=O)C1=C(C(=O)OC)C2(OC(C)=O)c3ccccc3-c3ccccc3C12` (stereo not drawn), the TGI in the assay on DLD-1 colon was 3.28 µM; with DMS 273 small cell lung it was 9.61 µM; in the assay with HOP-18 NSCLC, 9.5 µM; in the assay with KM20L2 colon it was 12.8 µM; with XF 498 CNS it was 26.1 µM.
Turning to `COC1=CC(=O)[C@H]2[C@H](C)C(c3ccccc3)[C@@]2(C)C1=O` (stereo partly drawn), the TGI with DLD-1 colon, in the assay on DMS 273 small cell lung and with XF 498 CNS was > 100 µM throughout.
For the compound `CC1=C2C(=O)[C@H]3[C@@H](CC=C4C[C@@H](O)CC[C@@]43C)[C@@H]2CC[C@]12O[C@@H]1C[C@H](C)CN[C@H]1[C@H]2C`, the TGI with DLD-1 colon was found to be 97.1 µM; with DMS 273 small cell lung it was 48.5 µM; in the assay on HOP-18 NSCLC, 31.3 µM; with KM20L2 colon, 93.2 µM; in the assay with RXF-631 renal, 50 µM.
Take `CCCC/C=C/C1Cc2ccccc2CN1S(=O)(=O)c1ccc(C)cc1` (stereo not drawn): the TGI in the assay on DLD-1 colon is 32.9 µM; with DMS 273 small cell lung, 29.6 µM; with HOP-18 NSCLC, > 100 µM; with KM20L2 colon it was 26.2 µM; in the assay with RXF-631 renal it was 20.9 µM; in the assay on XF 498 CNS, 78.1 µM.
For the compound `COc1nc(SC)nc2c1cnn2C1OC(C(O)CO)C(OC)C1O` (stereo not drawn), the TGI in the assay with DLD-1 colon, in the assay on DMS 273 small cell lung, in the assay with HOP-18 NSCLC, in the assay with KM20L2 colon, in the assay on P388 leukemia and in the assay with P388/ADR leukemia was > 100 µM in each case. In addition, the TGI was > 84 µM in the assay on SN12K1 renal and > 100 µM in the assay on XF 498 CNS.
On to `CC(=O)O/N=C/c1ncccc1OC(C)=O`, for which the TGI with DLD-1 colon, with DMS 273 small cell lung, in the assay on HOP-18 NSCLC, in the assay on KM20L2 colon, in the assay on RXF-631 renal and with XF 498 CNS was > 100 µM each time.
Regarding `Nc1nc(SCCNC(=O)CCc2ccc(O)cc2)nc2c1ncn2C1OC(CO)C(O)C1O` (stereo not drawn), the TGI in the assay on DLD-1 colon, in the assay with DMS 273 small cell lung, in the assay on HOP-18 NSCLC, in the assay with KM20L2 colon and in the assay on XF 498 CNS was > 203 µM in each case.
Turning to `COc1cc(C2C(Cl)C(=O)N2NC(=O)c2ccccc2O)ccc1O` (stereo not drawn), the TGI with DLD-1 colon, in the assay with DMS 273 small cell lung, in the assay on HOP-18 NSCLC and with XF 498 CNS was > 100 µM throughout.
